Measurements: US7408039B2, “Kits for treatment of hematologic disorders” (The General Hospital Corporation, priority 1997, dated 2008)

Tests used:
[1] = cited from earlier work
[2] = test system: refractory non-Hodgkin's lymphoma; conditions: five patients; Cy 50 mg/kg daily x4
Text: Median patient age was 30 (range 20-45) years. All patients had disease progression during salvage chemotherapy or radiation therapy.

O=P1(N(CCCl)CCCl)NCCCO1 (centres unmarked) [cyclophosphamide]
post-chemotherapy hematopoietic recovery ([1]; 200 mg/kg, expected, following drug administration): approximately 2 weeks
patients developing diffuse maculopapular rash ([1]; 24-72 hours following cyclophosphamide): 10-20%
patients with some hematuria ([1]; at this dose level (50 mg/kg x 4)): Approximately 50%
incidence of hemorrhagic cystitis ([1]; cyclophosphamide 50 mg/kg on days -6 to -3): 20%
myeloablation ([1]; dose of 200 mg/kg): not myeloablative
time for rash to resolve ([1]; in vivo): 24 to 48 h
total dose at which fatal cardiac failure due to hemorrhagic necrosis can occur ([1]; total dose (7.6 grams/m^2)): ≥ 200 mg/kg
patients with reversible Cy cardiotoxicity [2]: 1 n
